{"source": "patent US20240018470A1", "about": "“METHOD OF MANIPULATING PLURIPOTENCY IN CELLS” (YALE UNIVERSITY, priority 2022, published 2024)", "tested_on": "Xenopus embryos", "experiment": "Whole mount in situ hybridization for germ layer and pluripotency markers", "type": "in vivo, Xenopus tropicalis", "description": "In order to generate a full-length antisense probe for X. tropicalis kcnh6, kcnh6 cDNA was cloned from stage 45 tadpole whole mRNA using primers […] ID NO:10) and […] ID NO:11) (XM_012952904.1). It was noted that kcnh6 had been misannotated as kcnh2 in the v7.1 model of the X. tropicalis genome (The present study used NCBI Annotation XP_012808358.2 to identify KCNH6). […] GRPs were dissected post fixation and prior to dehydration to detect dandy. To detect putative gene expression in the prospective endoderm (mixer, vegT, kcnh6) gastrula stage embryos were bisected to facilitate better probe access. Briefly, whole mount in situ hybridization of digoxigenin-labeled antisense probes was performed overnight, the labelled embryos were then washed, incubated with anti-digoxigenin-AP Fab fragments (Roche 11093274910), and signal was detected using BM-purple (Roche 11442074001). Normal embryonic medium is 1/9× modified Ringer's (MR) containing 11 mM NaCl, 0.2 mM KCl, 0.2 mM CaCl2), 0.1 mM Mg2Cl and 0.55 mM HEPES. […] For extracellular K^+ manipulations, the KCl concentration in 1/9×MR was modified from 0.2 mM (normal) to 20 mM (high) or 0 mM (low). […] For rapamycin, the present study created a standard stock solution of 50 mg/ml in DMSO. The stock solution was diluted 1:2500 in the appropriate embryonic media (final 20 μg/ml). […] In experiments where embryos were evaluated for phenotypes and scored (gastrulation, left-right patterning, in situ hybridizations) the present study carried out three to five biological replicates and Fisher's exact test to evaluate statistical significance. The animal cap experiment was performed twice with a total score of four to eight animal caps per experiment. […] For whole cell electrophysiological recordings, three to five embryos (two cells each) were examined for their membrane potential and statistical significance was tested by student's t-test. Graphs were designed using GraphPad Prism software. Models were created with BioRender.com."}
{"substance": "kcnh6 MO: kcnh6 translation blocking morpholino oligonucleotide, 5′-GGTCCTCGAAGTTTAGGATAAACAT-3′, SEQ ID NO:1 (all phosphorodiamidate morpholino (PMO))", "values": [{"measurement": "embryos with myf5 lost", "setting": "kcnh6 depleted embryos treated only with DMSO", "value": "35±5", "unit": "%"}, {"measurement": "embryos with absent ectodermin", "setting": "kcnh6 depleted embryos treated with DMSO", "value": "51±6", "unit": "%"}]}
